What was measured:
Assay type in all cases: in vivo
[1] = test system: Streptococcus pneumoniae serotype 3; test: Opsonophagocytosis assay of serum of immunized mice, serotype 3; settings: PCV13 plus QS-21 vs PCV13 plus VSA-1
Description: (§1) BALB/c mice used in this study were purchased from the Jackson Laboratory and maintained within an environmentally controlled, pathogen-free animal facility at the University of Alabama at Birmingham (UAB). Each human dose of PCV13 (trade name Prevnar 13 by Pfizer) is available in 0.5 mL single-dose pre-filled syringes. Groups of female BALB/c mice (8-10 weeks of age, six per group) were immunized via the subcutaneous route (s.c.) with saline, PCV 13 (50 μL), PCV13 (50 μL) plus QS-21 (20 μg), or PCV13 (50 μL) plus VSA-1 (100 μg) on days 0, 14 and 28. Serum samples were collected prior to the first immunization and at 2 weeks following the last immunization. Equal volumes of the six sera in each group were pooled together to create serum pools for each group. The serum was obtained after centrifugation and stored at −20° C. until assayed. All studies were performed according to National Institutes of Health guidelines, and protocols were approved by the UAB Institutional Animal Care and Use Committee.
(§2) Opsonophagocytosis assay for serotypes 3, 4, 6B, 9V, 14, 19A, and 19F was performed using a 4-fold multiplexed opsonization assay described in the literature. […] Opsonic indices were determined as the interpolated serum dilution that kills 50% of bacteria. […]

[2] = test system: Streptococcus pneumoniae serotype 9V; test: Opsonophagocytosis assay of serum of immunized mice, serotype 9V; settings: PCV13 plus QS-21 vs PCV13 plus VSA-1
Description: as §1, §2

[3] = test system: Streptococcus pneumoniae serotype 14; test: Opsonophagocytosis assay of serum of immunized mice, serotype 14; settings: adjuvant added to PCV13 vs PCV13 alone; BALB/c mice
Description: as §1, §2

[4] = test system: Streptococcus pneumoniae serotype 19F; test: Opsonophagocytosis assay of serum of immunized mice, serotype 19F; settings: PCV13 plus QS-21 vs PCV13 plus VSA-1
Description: as §1, §2

[5] = test system: Streptococcus pneumoniae seven serotypes (3, 4, 6B, 9V, 14, 19A and 19F); test: IgG subclass pneumococcal antibody ELISA, seven serotypes together (average, summary); settings: adjuvant added to PCV13; BALB/c mice
Description: Four groups of female BALB/c mice (6 per group) were immunized with normal saline, one tenth human dose of PCV13, PCV13+VSA-1, and PCV13-QS21 on days 0, 14 […]. QS21 is another saponin adjuvant. Blood samples were obtained on day 42. IgG subclass of pneumococcal antibodies in the pooled serum samples of each group were determined with pneumococcal antibody ELISA for seven serotypes (3, 4, 6B, 9V, 14, 19A and 19F) using enzyme-conjugated antibodies against mouse IgG1, IgG2a or IgG3.

[6] = test system: Streptococcus pneumoniae serotypes 3, 4, 6B, 9V, 14, 19A, and 19F; test: Opsonophagocytosis assay, several serotypes together; settings: adjuvant added to PCV13 vs PCV13 alone, BALB/c mice
Description: as §1, §2

Substance: QS-21
- opsonic titer, QS-21 superior to VSA-1, serotype 3 [1]: 1.3 fold
- opsonic titer, QS-21 superior to VSA-1, serotype 9V [2]: 2.4 fold
- increase of PCV13-induced opsonic titers, serotype 14 [3]: 14.9 fold
- opsonic titer, QS-21 superior to VSA-1, serotype 19F [4]: 1.2 fold
- IgG1, IgG2a and IgG3 antibodies titers against seven selected serotypes [5]: boosted
- increase of PCV13-induced opsonic titers [6]: 1.9-4.9 fold

Reference: patent publication US20260174839A1, “PN[…] OTHER VACCINES P[…] SAPONIN ADJUVANT” (priority 2022, published 2026)
